# From patent US4245106A, “Process for the preparation of 1-alkyl-3-aryl-4-pyrazolecarboxylates” (Monsanto Company, priority 1979, dated 1981)
# Tests used:
# Assay type in all cases: in vivo
# [1] = system: Quackgrass; assay: post-emergent herbicidal activity test
# Method: (§1) The post-emergent tests were conducted as follows. The active ingredients are applied in spray form to two or three-week old specimens of various plant species. The spray, a solution or wettable powder suspension containing the appropriate rate of active ingredient to give the desired test rate and a surfactant, is applied to the plants. The treated plants are placed in a greenhouse and unless otherwise noted approximately four weeks later the effects are observed and recorded.
# [2] = system: Smartweed; assay: post-emergent herbicidal activity test
# Method: as §1
# [3] = system: Cocklebur; assay: post-emergent herbicidal activity test
# Method: as §1
# [4] = system: Canada Thistle; assay: post-emergent herbicidal activity test
# Method: as §1
# [5] = system: Nutsedge; assay: post-emergent herbicidal activity test
# Method: as §1
# [6] = system: Velvetleaf; assay: post-emergent herbicidal activity test
# Method: as §1
# [7] = system: Barnyard grass; assay: post-emergent herbicidal activity test
# Method: as §1
# [8] = system: Morningglory; assay: post-emergent herbicidal activity test
# Method: as §1
# [9] = system: Lambsquarter; assay: post-emergent herbicidal activity test
# Method: as §1
# [10] = system: Bromus tectorum; assay: post-emergent herbicidal activity test
# Method: as §1
# [11] = system: Johnsongrass; assay: post-emergent herbicidal activity test
# Method: as §1
# [12] = system: Quackgrass; assay: pre-emergent herbicidal activity test
# Method: (§2) Table II summarizes results of tests conducted to determine the pre-emergent as well as the post-emergent herbicidal activity of the compounds. The pre-emergent test was conducted as follows:
# (§3) A good grade of top soil was placed in aluminum pans and compacted to a depth of three-eighths to one-half inch from the top of the pan. On the top of the soil was placed a predetermined number of seeds or vegetative propagules of various plant species. The soil required to level fill the pans after seeding or adding vegetative propagules was weighed into a pan. A known amount of the active ingredient applied in a solvent or as a wettable powder and the soil were thoroughly mixed, and used as a cover layer for prepared pans. After treatment the pans were moved into a greenhouse bench where they were watered from below as needed to give adequate moisture for germination and growth.
# (§4) A herbicial rating code was used to signify the extent of phytotoxicity of each species. The rating are defined as follows: […]
# [13] = system: Smartweed; assay: pre-emergent herbicidal activity test
# Method: as §2, §3, §4
# [14] = system: Cocklebur; assay: pre-emergent herbicidal activity test
# Method: as §2, §3, §4
# [15] = system: Canada Thistle; assay: pre-emergent herbicidal activity test
# Method: as §2, §3, §4
# [16] = system: Nutsedge; assay: pre-emergent herbicidal activity test
# Method: as §2, §3, §4
# [17] = system: Velvetleaf; assay: pre-emergent herbicidal activity test
# Method: as §2, §3, §4
# [18] = system: Barnyard grass; assay: pre-emergent herbicidal activity test
# Method: as §2, §3, §4
# [19] = system: Morningglory; assay: pre-emergent herbicidal activity test
# Method: as §2, §3, §4
# [20] = system: Lambsquarter; assay: pre-emergent herbicidal activity test
# Method: as §2, §3, §4
# [21] = system: Bromus tectorum; assay: pre-emergent herbicidal activity test
# Method: as §2, §3, §4
# [22] = system: Johnsongrass; assay: pre-emergent herbicidal activity test
# Method: as §2, §3, §4
# [23] = 11.2 Kg/Ha, approximately four weeks later
# [24] = 11.2 Kg/Ha, approximately 28 days after seeding and treating
# [25] = *11.2 Kg/Ha, observed approximately 14 days after treatment
# Further: ranges in brackets are in %.
smiles,measurement,setting,value
CCOC(=O)c1cn(C)nc1-c1ccc(C(F)(F)F)cc1 [Example 17],"Post-Emergent herbicidal rating, H Quackgrass",[1]; [23],0 (0-24)
same,"Post-Emergent herbicidal rating, F Smartweed",[2]; [23],0 (0-24)
same,"Post-Emergent herbicidal rating, B Cocklebur",[3]; [23],0 (0-24)
same,"Post-Emergent herbicidal rating, A Canada Thistle",[4]; [23],1 (25-49)
same,"Post-Emergent herbicidal rating, G Nutsedge",[5]; [23],0 (0-24)
same,"Post-Emergent herbicidal rating, C Velvetleaf",[6]; [23],0 (0-24)
same,"Post-Emergent herbicidal rating, K Barnyard grass",[7]; [23],0 (0-24)
same,"Post-Emergent herbicidal rating, D Morningglory",[8]; [23],0 (0-24)
same,"Post-Emergent herbicidal rating, E Lambsquarter",[9]; [23],0 (0-24)
same,"Post-Emergent herbicidal rating, J Bromus tectorum",[10]; [23],0 (0-24)
same,"Post-Emergent herbicidal rating, I Johnsongrass",[11]; [23],0 (0-24)
same,"Pre-Emergent herbicidal rating, H Quackgrass",[12]; [24],0 (0-24)
same,"Pre-Emergent herbicidal rating, F Smartweed",[13]; [24],2 (50-74)
same,"Pre-Emergent herbicidal rating, B Cocklebur",[14]; [24],0 (0-24)
same,"Pre-Emergent herbicidal rating, A Canada Thistle",[15]; [24],0 (0-24)
same,"Pre-Emergent herbicidal rating, G Nutsedge",[16]; [24],1 (25-49)
same,"Pre-Emergent herbicidal rating, C Velvetleaf",[17]; [24],0 (0-24)
same,"Pre-Emergent herbicidal rating, K Barnyard grass",[18]; [24],2 (50-74)
same,"Pre-Emergent herbicidal rating, D Morningglory",[19]; [24],0 (0-24)
same,"Pre-Emergent herbicidal rating, E Lambsquarter",[20]; [24],3 (75-100)
same,"Pre-Emergent herbicidal rating, J Bromus tectorum",[21]; [24],1 (25-49)
same,"Pre-Emergent herbicidal rating, I Johnsongrass",[22]; [24],0 (0-24)
Cn1cc(C(=O)OCC2CC(F)(F)C2(F)F)c(-c2cccc(C(F)(F)F)c2)n1 (centres unmarked) [Example 18],"Post-Emergent herbicidal rating, H Quackgrass",[1]; [25],1 (25-49)
same,"Post-Emergent herbicidal rating, F Smartweed",[2]; [25],1 (25-49)
same,"Post-Emergent herbicidal rating, B Cocklebur",[3]; [25],1 (25-49)
same,"Post-Emergent herbicidal rating, A Canada Thistle",[4]; [25],1 (25-49)
same,"Post-Emergent herbicidal rating, G Nutsedge",[5]; [25],0 (0-24)
same,"Post-Emergent herbicidal rating, C Velvetleaf",[6]; [25],2 (50-74)
same,"Post-Emergent herbicidal rating, K Barnyard grass",[7]; [25],1 (25-49)
same,"Post-Emergent herbicidal rating, D Morningglory",[8]; [25],2 (50-74)
same,"Post-Emergent herbicidal rating, E Lambsquarter",[9]; [25],2 (50-74)
same,"Post-Emergent herbicidal rating, J Bromus tectorum",[10]; [25],1 (25-49)
same,"Post-Emergent herbicidal rating, I Johnsongrass",[11]; [25],1 (25-49)
same,"Pre-Emergent herbicidal rating, H Quackgrass",[12]; [25],0 (0-24)
same,"Pre-Emergent herbicidal rating, F Smartweed",[13]; [25],2 (50-74)
same,"Pre-Emergent herbicidal rating, B Cocklebur",[14]; [25],0 (0-24)
same,"Pre-Emergent herbicidal rating, A Canada Thistle",[15]; [25],1 (25-49)
same,"Pre-Emergent herbicidal rating, G Nutsedge",[16]; [25],0 (0-24)
same,"Pre-Emergent herbicidal rating, C Velvetleaf",[17]; [25],1 (25-49)
same,"Pre-Emergent herbicidal rating, K Barnyard grass",[18]; [25],1 (25-49)
same,"Pre-Emergent herbicidal rating, D Morningglory",[19]; [25],1 (25-49)
same,"Pre-Emergent herbicidal rating, E Lambsquarter",[20]; [25],2 (50-74)
same,"Pre-Emergent herbicidal rating, J Bromus tectorum",[21]; [25],1 (25-49)
same,"Pre-Emergent herbicidal rating, I Johnsongrass",[22]; [25],0 (0-24)
C=C(Cl)COC(=O)c1cn(C)nc1-c1cccc(C(F)(F)F)c1 [Example 19],"Post-Emergent herbicidal rating, H Quackgrass",[1]; [25],0 (0-24)
same,"Post-Emergent herbicidal rating, F Smartweed",[2]; [25],1 (25-49)
same,"Post-Emergent herbicidal rating, B Cocklebur",[3]; [25],1 (25-49)
same,"Post-Emergent herbicidal rating, A Canada Thistle",[4]; [25],1 (25-49)
same,"Post-Emergent herbicidal rating, G Nutsedge",[5]; [25],0 (0-24)
same,"Post-Emergent herbicidal rating, C Velvetleaf",[6]; [25],1 (25-49)
same,"Post-Emergent herbicidal rating, K Barnyard grass",[7]; [25],1 (25-49)
same,"Post-Emergent herbicidal rating, D Morningglory",[8]; [25],1 (25-49)
same,"Post-Emergent herbicidal rating, E Lambsquarter",[9]; [25],1 (25-49)
same,"Post-Emergent herbicidal rating, J Bromus tectorum",[10]; [25],0 (0-24)
same,"Post-Emergent herbicidal rating, I Johnsongrass",[11]; [25],1 (25-49)
same,"Pre-Emergent herbicidal rating, H Quackgrass",[12]; [25],1 (25-49)
same,"Pre-Emergent herbicidal rating, F Smartweed",[13]; [25],2 (50-74)
same,"Pre-Emergent herbicidal rating, B Cocklebur",[14]; [25],0 (0-24)
same,"Pre-Emergent herbicidal rating, A Canada Thistle",[15]; [25],1 (25-49)
same,"Pre-Emergent herbicidal rating, G Nutsedge",[16]; [25],1 (25-49)
same,"Pre-Emergent herbicidal rating, C Velvetleaf",[17]; [25],1 (25-49)
same,"Pre-Emergent herbicidal rating, K Barnyard grass",[18]; [25],2 (50-74)
same,"Pre-Emergent herbicidal rating, D Morningglory",[19]; [25],1 (25-49)
same,"Pre-Emergent herbicidal rating, E Lambsquarter",[20]; [25],3 (75-100)
same,"Pre-Emergent herbicidal rating, J Bromus tectorum",[21]; [25],1 (25-49)
same,"Pre-Emergent herbicidal rating, I Johnsongrass",[22]; [25],1 (25-49)
CCC(C)OC(=O)c1cn(C)nc1-c1cccc(C(F)(F)F)c1 (centres unmarked) [Example 20],"Post-Emergent herbicidal rating, H Quackgrass",[1]; [23],0 (0-24)
same,"Post-Emergent herbicidal rating, F Smartweed",[2]; [23],0 (0-24)
same,"Post-Emergent herbicidal rating, B Cocklebur",[3]; [23],1 (25-49)
same,"Post-Emergent herbicidal rating, A Canada Thistle",[4]; [23],1 (25-49)
same,"Post-Emergent herbicidal rating, G Nutsedge",[5]; [23],0 (0-24)
same,"Post-Emergent herbicidal rating, C Velvetleaf",[6]; [23],1 (25-49)
same,"Post-Emergent herbicidal rating, K Barnyard grass",[7]; [23],0 (0-24)
same,"Post-Emergent herbicidal rating, D Morningglory",[8]; [23],0 (0-24)
same,"Post-Emergent herbicidal rating, E Lambsquarter",[9]; [23],2 (50-74)
same,"Post-Emergent herbicidal rating, J Bromus tectorum",[10]; [23],0 (0-24)
same,"Post-Emergent herbicidal rating, I Johnsongrass",[11]; [23],1 (25-49)
same,"Pre-Emergent herbicidal rating, H Quackgrass",[12]; [24],0 (0-24)
same,"Pre-Emergent herbicidal rating, F Smartweed",[13]; [24],1 (25-49)
same,"Pre-Emergent herbicidal rating, B Cocklebur",[14]; [24],0 (0-24)
same,"Pre-Emergent herbicidal rating, A Canada Thistle",[15]; [24],0 (0-24)
same,"Pre-Emergent herbicidal rating, G Nutsedge",[16]; [24],0 (0-24)
same,"Pre-Emergent herbicidal rating, C Velvetleaf",[17]; [24],0 (0-24)
same,"Pre-Emergent herbicidal rating, K Barnyard grass",[18]; [24],3 (75-100)
same,"Pre-Emergent herbicidal rating, D Morningglory",[19]; [24],0 (0-24)
same,"Pre-Emergent herbicidal rating, E Lambsquarter",[20]; [24],3 (75-100)
same,"Pre-Emergent herbicidal rating, J Bromus tectorum",[21]; [24],0 (0-24)
same,"Pre-Emergent herbicidal rating, I Johnsongrass",[22]; [24],0 (0-24)
CCCCCCOC(=O)c1cn(C)nc1-c1cccc(C(F)(F)F)c1 [Example 21],"Post-Emergent herbicidal rating, H Quackgrass",[1]; [25],0 (0-24)
same,"Post-Emergent herbicidal rating, F Smartweed",[2]; [25],1 (25-49)
same,"Post-Emergent herbicidal rating, B Cocklebur",[3]; [25],1 (25-49)
same,"Post-Emergent herbicidal rating, A Canada Thistle",[4]; [25],1 (25-49)
same,"Post-Emergent herbicidal rating, G Nutsedge",[5]; [25],0 (0-24)
same,"Post-Emergent herbicidal rating, C Velvetleaf",[6]; [25],1 (25-49)
same,"Post-Emergent herbicidal rating, K Barnyard grass",[7]; [25],1 (25-49)
same,"Post-Emergent herbicidal rating, D Morningglory",[8]; [25],1 (25-49)
same,"Post-Emergent herbicidal rating, E Lambsquarter",[9]; [25],2 (50-74)
same,"Post-Emergent herbicidal rating, J Bromus tectorum",[10]; [25],0 (0-24)
same,"Post-Emergent herbicidal rating, I Johnsongrass",[11]; [25],1 (25-49)
same,"Pre-Emergent herbicidal rating, H Quackgrass",[12]; [25],0 (0-24)
same,"Pre-Emergent herbicidal rating, F Smartweed",[13]; [25],0 (0-24)
same,"Pre-Emergent herbicidal rating, B Cocklebur",[14]; [25],0 (0-24)
same,"Pre-Emergent herbicidal rating, A Canada Thistle",[15]; [25],0 (0-24)
same,"Pre-Emergent herbicidal rating, G Nutsedge",[16]; [25],0 (0-24)
same,"Pre-Emergent herbicidal rating, C Velvetleaf",[17]; [25],0 (0-24)
same,"Pre-Emergent herbicidal rating, K Barnyard grass",[18]; [25],1 (25-49)
same,"Pre-Emergent herbicidal rating, D Morningglory",[19]; [25],0 (0-24)
same,"Pre-Emergent herbicidal rating, E Lambsquarter",[20]; [25],0 (0-24)
same,"Pre-Emergent herbicidal rating, J Bromus tectorum",[21]; [25],0 (0-24)
same,"Pre-Emergent herbicidal rating, I Johnsongrass",[22]; [25],0 (0-24)
